The subject of this assay is 994946-033-R-J1-PDC complex spheroid viability. Briefly: Anticancer human tumor 994946-033-R-J1-PDC patient-derived melanoma cell line growth inhibition [POLQ]. Conditions: for viability, T/C: stronger effect = lower value; for IC50: curve of compound. Here is the method: Multicellular complex tumor spheroid response to Polymerase (POL) inhibitors (novobiocin, ART-558, RP6685) in combination with a variety of drugs and investigational agents in selected tumor cell lines
The POL inhibitors (novobiocin, ART-558, and RP6685) were evaluated both individually and in combination with standard of care and investigational anticancer small molecules within a complex spheroid model of solid tumors. . Complex spheroids include a stromal component modeled by human endothelial cells (HUVEC) and fibroblasts modeled by human mesenchymal stem cells (MSCs). The concentration ranges selected for each drug and investigational agent were based upon clinically achievable concentrations if the clinical Cmax of the agent was known.
Compounds. The drugs and investigational agents: novobiocin (NSC847541), ART-558 (NSC835418), RP-6685 (NSC848927), peposertib (NSC802822), ceralasertib (NSC780249), elimusertib (NSC800525), camonsertib (NSC841442), AZD-1390 (NSC803789), olaparib (NSC753686), talazoparib (NSC767125), rucaparib (NSC756644), sotorasib (NSC818433), MRTX-1133 (NSC836407), SN-38 (NSC673596), topotecan (NSC609699), epotoside (NSC141540), doxorubicin (NSC123127), gemcitabine (NSC613327), 5-fluorouracil (NSC19893), paclitaxel (NSC125973), vemurafenib (NSC761431), MSA-2 (NSC828583), SN-011 (NSC837082), adavosertib (NSC754352), prexasertib (NSC758257), carboplatin (NSC241240) and oxaliplatin (NSC266046), were obtained from the National Cancer Institute (NCI) Developmental Therapeutics Program Chemical Repository (21). The FDA-approved anticancer drug set is available from the Developmental Therapeutics Program at https://dtp.cancer.gov/organization/dscb/obtaining/. […] The stock solutions were prepared in dimethyl sulfoxide (DMSO, Sigma-Aldrich, St. Louis, MO, cat. D2650), except for the platinum compounds which were prepared in saline (Quality Biological, Gaithersburg, MD, cat. 114-055-101), at 800-fold the tested concentration and stored at -70 degrees C prior to their use. All drugs and investigational agents were tested over a range starting from a high concentration at or near the clinical Cmax and decreasing in half-log increments. If the clinical Cmax for an agent had not been determined, the highest concentration tested was 10 microM, except for SN-38, which was tested at a high concentration of 1 microM.
Cell Culture. All cells were maintained in an incubator at 37 degrees C and 5% CO2 with 95% humidity. The PDC lines were cultured according to standard operating procedures established by the NCI PDMR (https://pdmr.cancer.gov). Table 3 of the manuscript, lists the cell lines along with the number of the three cell types plated to form the mct-spheroids and media for tumor cell growth. After thawing, all PDC lines, except 997537-175-T-J1-PDC and 415267-285-R-J2-PDC, were cultured in Matrigel-coated flasks prepared with a working solution of 1X Ham's F-12 nutrient mix, without supplementation (Thermo Fisher Scientific, cat. 11765054), 100 U/mL penicillin-streptomycin (Thermo Fisher Scientific, cat. 15140122), and 2.5% Matrigel (Corning Inc., Corning, NY, cat. 354248) for the first three passages. The two PDC lines 997537-175-T-J1-PDC and 415267-285-R-J2-PDC were cultured on uncoated flasks. The 857933-349-R-J2-PDC line was cultured in 6C/Colon 1B media containing advanced DMEM/F-12 (Thermo Fisher Scientific, cat. 12634028), 10 mM HEPES (Thermo Fisher Scientific, cat. 15630080), 1X GlutaMAX supplement (Thermo Fisher Scientific, cat. 35050061), 0.1 mg/mL primocin (InvivoGen, San Diego, CA, cat. ant-pm-2), 10% defined fetal bovine serum, heat inactivated (HyClone Laboratories Inc., Logan, UT, cat. SH30070.03HI), 50% L-WRN conditioned media (ATCC, cat. CRL-3276), 1.25 mM N-Acetyl-L-cysteine (Sigma-Aldrich, cat. A9165), 10 mM nicotinamide (Sigma-Aldrich, cat. N0636), 1X B-27 supplement (Thermo Fisher Scientific, cat. 17504044), 1X N-2 supplement (Thermo Fisher Scientific, cat. […]

Values joined by “and” are separate entries in the source; they are usually repeats but may differ in a detail not shown here. Identical values can stand only once.
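Also: spheroids exposed to drugs for 7 days.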

With `CCc1cc2c(N3CCc4c(cc(Cn5ccnc5)cc4-c4cn(C)nc4C(F)(F)F)C3=O)ccnc2c(OC)n1`, the IC50 (in general, the point on the concentration scale where inhibition reaches its midpoint) is > 10 µM and 8.11 µM. Further, the viability, T/C (as a rule, the result in the treated group divided by that in the control group, in per cent) (compound 0.0316 µM) was 89.4% and 91.8% and 73.3%. The viability, T/C (compound 0.1 µM) is 85.4% and 86.5% and 82.3%. Further, the viability, T/C (compound 0.316 µM) was 85.9% and 66.4% and 74.3%. The viability, T/C (compound 1 µM) is 88.4% and 84% and 76.2%. Besides, the viability, T/C (compound 3.16 µM) was 80.5% and 83.7% and 102%. For the same compound, the viability, T/C (compound 10 µM) is 76% and 62.5% and 43%.
Take `CNCc1ccc(-c2[nH]c3cc(F)cc4c3c2CCNC4=O)cc1`: the IC50 is above 10 µM. The viability, T/C (compound 0.0316 µM) was 90.6% and 92.2% and 105%. For the same compound, under “compound 0.1 µM”, the viability, T/C is 111% and 79.6% and 87%. The viability, T/C (compound 0.316 µM) was 112% and 90% and 90.3%. For the setting “compound 1 µM”, the viability, T/C was 107% and 83.3% and 103%. For the same compound, for the setting “compound 3.16 µM”, the viability, T/C is 110% and 98.3% and 105%. The viability, T/C (compound 10 µM) is 93.4% and 76.8% and 66.9%.
As for `COc1cc(C2c3cc4c(cc3C(OC3OC5COC(C)OC5C(O)C3O)C3COC(=O)C23)OCO4)cc(OC)c1O` (configuration not stated), the IC50 was 0.212 µM and 0.24 µM and 0.313 µM. The viability, T/C (compound 0.0316 µM) is 92.1% and 89.8% and 87.4%. Moreover, the viability, T/C (compound 0.1 µM) is 56.1% and 74.7% and 56.7%. Under “compound 0.316 µM”, the viability, T/C was 42.6% and 37.3% and 54.9%. Moreover, the viability, T/C (compound 1 µM) is 36.4% and 29.4% and 38.1%. In addition, the viability, T/C (compound 3.16 µM) was 15% and 14.1% and 14.8%. In addition, under “compound 10 µM”, the viability, T/C is 5.65% and 9.75% and 6.75%.
Regarding `COc1cc2cc(C(=O)CCC(=O)O)sc2cc1OC`, the IC50 was above 10 µM. Moreover, the viability, T/C (compound 0.0316 µM) is 75.1% and 90.9% and 96.1%. Also, the viability, T/C (compound 0.1 µM) is 84.1% and 72% and 94.5%. Moreover, the viability, T/C (compound 0.316 µM) is 85.4% and 111% and 76.8%. Also, the viability, T/C (compound 1 µM) was 88.2% and 64.1% and 113%. Besides, where the note is “compound 3.16 µM”, the viability, T/C was 96% and 104% and 75.2%. In addition, the viability, T/C (compound 10 µM) was 95.3% and 89.2% and 61.4%.
Regarding `COc1ccc([C@@H](O)c2cc(-c3ncnc4cc(N5CCOCC5)ccc34)c(F)cc2Cl)nn1`, the IC50 is 4.11 µM and 5.57 µM and > 10 µM. For the same compound, the viability, T/C (compound 0.0316 µM) is 115% and 94.1% and 79.4%. Where the note is “compound 0.1 µM”, the viability, T/C is 91.2% and 92.7% and 91%. For the same compound, for the setting “compound 0.316 µM”, the viability, T/C was 81.5% and 95.9% and 99.5%. Further, the viability, T/C (compound 1 µM) is 49.6% and 78.9% and 67.1%. In addition, the viability, T/C (compound 3.16 µM) was 59.4% and 74.8% and 59%. Where the note is “compound 10 µM”, the viability, T/C was 43.6% and 27.3% and 43.8%.
In the case of `COc1cccc(OCCCN)c1-c1cc(Nc2cnc(C#N)cn2)n[nH]1`, the IC50 is 0.0137 µM and 0.0197 µM and 0.0575 µM. The viability, T/C (compound 0.00316 µM) is 75.6% and 100% and 79.2%. The viability, T/C (compound 0.01 µM) was 60.5% and 80.8% and 75.1%. Moreover, under “compound 0.0316 µM”, the viability, T/C is 14.7% and 28.4% and 65.5%. The viability, T/C (compound 0.1 µM) is 29.1% and 32.4% and 35.9%. For the same compound, for the setting “compound 0.316 µM”, the viability, T/C is 28.6% and 28.5% and 17.2%. In addition, the viability, T/C (compound 1 µM) was 16.6% and 16.5% and 12.6%.
With `COc1cccc2c1C(=O)c1c(O)c3c(c(O)c1C2=O)CC(O)(C(=O)CO)CC3OC1CC(N)C(O)C(C)O1` (configuration not stated), the IC50 was below 0.0316 µM. In addition, the viability, T/C (compound 0.0316 µM) was 24.5% and 30.4% and 28.5%. Also, the viability, T/C (compound 0.1 µM) was 5.96% and 8.53% and 11.6%. In addition, for the setting “compound 0.316 µM”, the viability, T/C was 2.17% and 5.76% and 2.69%. The viability, T/C (compound 1 µM) was 1.78% and 1.25% and 2.38%. In addition, the viability, T/C (compound 3.16 µM) was 2.29% and 1.69% and 2.17%. In addition, the viability, T/C (compound 10 µM) was 2.7% and 0.94% and 0.62%.
For the compound `Cn1ncnc1[C@H]1c2n[nH]c(=O)c3cc(F)cc(c23)N[C@@H]1c1ccc(F)cc1`, the IC50 was > 0.1 µM and 0.0619 µM. Moreover, the viability, T/C (compound 0.000316 µM) was 118% and 108% and 103%. Further, the viability, T/C (compound 0.001 µM) is 82.7% and 80.6% and 106%. Also, the viability, T/C (compound 0.00316 µM) was 69.9% and 79.6% and 106%. Moreover, the viability, T/C (compound 0.01 µM) was 104% and 80% and 82.1%. Moreover, for the setting “compound 0.0316 µM”, the viability, T/C was 87.1% and 53.5% and 66.7%. The viability, T/C (compound 0.1 µM) is 65.3% and 44.1% and 65.5%.
As to `Nc1ccn(C2OC(CO)C(O)C2(F)F)c(=O)n1` (configuration not stated), the IC50 was below 0.0316 µM. Under “compound 0.0316 µM”, the viability, T/C is 26% and 34.1% and 24.7%. Besides, the viability, T/C (compound 0.1 µM) was 4.77% and 7.08% and 7.51%. Also, under “compound 0.316 µM”, the viability, T/C was 5.46% and 6.51% and 7.23%. In addition, the viability, T/C (compound 1 µM) is 6.12% and 6.87% and 8.28%. For the setting “compound 3.16 µM”, the viability, T/C is 4.43% and 9.96% and 4.73%. In addition, the viability, T/C (compound 10 µM) was 1.87% and 3.82% and 1.78%.
Consider `O=C(c1cc(Cc2n[nH]c(=O)c3ccccc23)ccc1F)N1CCN(C(=O)C2CC2)CC1`, for which the IC50 is 5.19 µM and 4.15 µM and 4.32 µM. The viability, T/C (compound 0.0316 µM) was 98.7% and 77.9% and 85.7%. The viability, T/C (compound 0.1 µM) is 94% and 103% and 89.2%. For the same compound, the viability, T/C (compound 0.316 µM) was 101% and 90.9% and 80.3%. The viability, T/C (compound 1 µM) is 91.5% and 88.8% and 54.5%. Further, for the setting “compound 3.16 µM”, the viability, T/C is 63.4% and 55.2% and 62.6%. Where the note is “compound 10 µM”, the viability, T/C was 32.4% and 33.3% and 36.9%.
For the compound `O=c1[nH]cc(F)c(=O)[nH]1`, the IC50 is 4.22 µM and > 10 µM. Further, the viability, T/C (compound 0.0316 µM) is 115% and 112% and 96.8%. In addition, where the note is “compound 0.1 µM”, the viability, T/C was 95.1% and 107% and 103%. Moreover, the viability, T/C (compound 0.316 µM) is 71.1% and 97.4% and 103%. For the same compound, where the note is “compound 1 µM”, the viability, T/C is 63.1% and 67.9% and 60.2%. Further, the viability, T/C (compound 3.16 µM) was 50.7% and 73.6% and 64%. Moreover, where the note is “compound 10 µM”, the viability, T/C is 45.7% and 47.6% and 54.8%.

The record behind these values is PubChem BioAssay AID1963827 (Molecular Pharmacology Branch, DTP, NCI, 2024).
